Reference: patent publication US8901091B2, “Method of treating herpes virus infection using macrocyclic lactone compound” (Galderma S.A., priority 2010, dated 2014)

Assays:
[1] = test system: varicella zoster virus; assay: Informal trials: topical ivermectin lotion in patients with herpes zoster (shingles); type: in vivo, human
From the text: For treating herpes zoster, preferably the surface of the affected area of the skin is gently scratched prior to rubbing the composition containing the macrocyclic lactone compound on the area. Gentle scratching abrades the stratumcorium, which allows better penetration of the macrocyclic lactone compound into the skin. The stratum corneum is the outermost layer of the epidermis, composed of large, polyhedral, plate-like envelopes filled with keratin, which is made up of dead cells that have migrated up from the stratum granulosum. As these dead cells slough off on the surface, they are continuously replaced by new cells from the stratum germinativum. Alternatively, the composition can be dispensed on the affected area, and then scratched into the area. Scratching with cleaned finger nails or a sterilized scraping tool, for example small sharp curette or a needle point, can be used.
(§1) The composition can be applied topically to the affected area one or more times a day, typically one to two times a day, when a herpes simplex episode occurs or during the course of shingles or chicken box. When the pain is severe, the composition can be applied more frequently to help alleviate the symptoms. Moreover, the composition can also be integrated into or applied on medical dressing, dermal patch, or lint free wipes, which can be applied to the affected area as needed, to provide a more extended exposure to the medication.
For herpes zoster, at the early onset the patient develops a patch of linear area of paresthesia, and hyperesthesia (burning, stinging, and pain). At this time, the composition containing ivermectin should be topically applied promptly and scratched into the skin. Concurrently, an oral antiviral medication can be used promptly.
(§2) Operating with informed consent of individuals, individuals were treated with the topical composition and the method of the present invention for treating herpes virus infection, more particularly herpes simplex and herpes zoster or shingles, as described in Examples 3 to 8.

[2] = Side effects and tolerability observed in treated patients; type: in vivo, human; conditions: Example 5: person, high dose
Procedure: Operating with informed consent of individuals, individuals were treated with the topical composition and the method of the present invention for treating herpes virus infection, more particularly herpes simplex and herpes zoster or shingles, as described in Examples 3 to 8. In the above described informal trials, no adverse side effects or contra-indications were observed among the patients. The patients had no complaints of skin irritation, sensitivity or discomfort originating from the treatment.

[3] = test system: herpes simplex virus; assay: Informal trials: topical ivermectin lotion in patients with herpes simplex; type: in vivo, human
From the text: The composition of the present invention described above is applied to the affected area of patients having herpes simplex, herpes zoster, or chicken-pox. Preferably, the lotion, cream, gel, or ointment can be applied on the affected area with gentle rubbing to help penetration of the macrocyclic lactone compound into the skin. Moreover, when lotion, cream, or hydrogel is used, preferably the affected area is dampened by water first, then a drop of lotion, cream, or hydrogel is rubbed on the affected area by finger(s). […] Moreover, if blisters are already formed at the affected area, at the time of applying the topical composition the blisters can be broken using a needle, then the composition is rubbed in the lesion.
as §1
The most impressive results are seen with early recognition and treatment. […] In medicine, a prodrome is an early symptom (or set of symptoms) that might indicate the start of a disease before specific symptoms occur. Prodromes may be non-specific symptoms or, in some instances, may clearly indicate a particular disease. In herpes simplex there is a prodrome consisting of a change in sensation, typically slight numbness or a faint tingling sensation with vague swelling or induration.
as §2

[4] = test system: herpes simplex virus; conditions: cited from earlier work
[5] = topical composition, ivermectin concentration as low as 0.075%

CC(=O)OCC(CCn1cnc2cnc(N)nc21)COC(C)=O [Famvir®, famciclovir]
Response of severe pain with burning and tingling to prior therapy ([1]; Example 6: person, high dose): had not responded

CC(C)[C@H](N)C(=O)OCCOCn1cnc2c(=O)[nH]c(N)nc21 [Valtrex®, valacyclovir]
Side effects of prior therapy [2]: cardiac irregularities, especially bigeminy and trigeminy | Satisfaction with prior therapy ([3]; Example 5: person, high dose): without total satisfaction

Nc1nc2c(ncn2COCCO)c(=O)[nH]1 [Zovirax®, acyclovir]
Benefit of prior therapy, orally ([3]; Example 3: patient history, oral): with benefit | Benefit of prior therapy, topically ([3]; Example 3: patient history, topical): without benefit

O=c1[nH]c(=O)n([C@H]2C[C@H](O)[C@@H](CO)O2)cc1I [idoxuridine]
Pain duration ([4]; topical, reported in a study): reduced pain duration | Time to loss of crust ([4]; topical, reported in a study): decreased time to loss of crust

Nc1nc2c(ncn2CCC(CO)CO)c(=O)[nH]1 [penciclovir]
Duration of lesions, pain, and viral shedding ([4]; cream applied early and late in course of HSV infection (Hamuy et al. 1998)): decreased the duration of lesions, pain, and viral shedding

ivermectin
Effectiveness in treating herpes zoster [1, 5]: effective | Effect of combined systematic and topical treatments on severity of herpes zoster ([1]; topical ivermectin composition with concurrent oral antiviral medication): synergistic effect in decreasing the severity | Effectiveness in treating herpes simplex [3, 5]: effective
